Earlier results, collected in patent US8809210B2, “Low roughness high surface-energy, anti-microbial fabric” (priority 2009, dated 2014).

Conditions: when covalently bonded to a surface

For CCCCCCCCCCCCCCCCCC[N+](C)(C)CCC[Si](OC)(OC)OC.[Cl-] [Si-QAC, 3-(Trimethoxysilyl)-propyldimethyloctadecyl ammonium chloride], the antimicrobial activity is listed as “antimicrobial activity”.
